From patent US6908931B2, “Tetrahydroisoquinoline derivatives as melatonin MT2 antagonists” (Bristol-Myers Squibb Company, priority 2003, dated 2005)

The compounds below were run against T1, human MT2 receptor (Homo sapiens, UniProt P49286) (assay: Melatonin receptor binding assay (MT2), 2-[125I]-iodomelatonin). Settings: not given.
T1 construct: melatonin MT1 and MT2 receptors cDNA were individually subcloned into pcDNA3 and introduced into NIH-3T3 cells using Lipofectamine; expressed in transfected cells
T1 sequence (P49286 1-362): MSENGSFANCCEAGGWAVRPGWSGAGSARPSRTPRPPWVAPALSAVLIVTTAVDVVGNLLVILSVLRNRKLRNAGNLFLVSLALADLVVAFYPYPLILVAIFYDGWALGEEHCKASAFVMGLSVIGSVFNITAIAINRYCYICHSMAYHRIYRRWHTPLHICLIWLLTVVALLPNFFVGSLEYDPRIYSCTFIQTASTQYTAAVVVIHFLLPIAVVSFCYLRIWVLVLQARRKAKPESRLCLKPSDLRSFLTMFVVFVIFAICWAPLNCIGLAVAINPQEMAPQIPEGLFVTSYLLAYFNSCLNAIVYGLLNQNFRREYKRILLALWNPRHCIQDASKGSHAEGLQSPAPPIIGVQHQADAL
Experimental: Melatonin receptor binding assay.
Membrane homogenates: melatonin MT1 and MT2 receptors cDNA were individually subcloned into pcDNA3 and introduced into NIH-3T3 cells using Lipofectamine. […] For preparing membrane homogenates, pellets are thawed on ice, and re-suspended in TME buffer in the presence of 10 μg/ml aprotinin and leupeptin, and 100 μM phenylmethylsulfonylfluoride. The cells were then homogenized using a dounce homogenizer, and centrifuged. The resulting pellet was re-suspended with dounce homogenizer in TME (supplemented with the above protease inhibitors) and frozen. On the day of assay, a small aliquot was thawed on ice and re-suspended in the ice cold TME (1:50-1:100 v/v) and held on ice until assayed. Incubation is at 37° C. for 1 hour. Reaction is terminated by filtration. Filters were washed 3 times.

Compound	IC50 [µM]
O=C(OCc1ccccc1)N1CCc2cc3c(cc2C1CCc1ccc(F)cc1)OCO3 (stereo not shown) [Example 100]	0.1 to 1

Same assay, conditions: membrane homogenates of NIH-3T3 cells expressing MT2; 2-[125I]-iodomelatonin 0.2 nM; 37° C., 1 hour; read-out: MT2 IC50

Compound	IC50 [µM]
COc1cc2c(cc1OC)C(CC1c3ccccc3-c3ccccc31)N(C(C)=O)CC2 (stereo not shown) [Example 26]	0.1 to 1
COc1cc2c(cc1OC)C(CCc1ccccc1)N(C(=O)C1CCC1)CC2 (stereo not shown) [Example 57]	< 0.1
COc1cc2c(cc1OC)C(CC(c1ccc(Cl)cc1)c1ccc(Cl)cc1)N(C(C)=O)CC2 (stereo not shown) [Example 85]	< 0.1
COc1cc2c(cc1OC)C(CCc1ccccc1)N(C(=O)c1cccc([N+](=O)[O-])c1)CC2 (stereo not shown) [Example 65]	0.1 to 1
COc1cc2c(cc1Br)CCN(C(C)=O)C2CC(c1ccccc1)c1ccccc1 (stereo not shown) [Example 22]	< 0.1
CCCCCCC(=O)N1CCc2cc(Br)c(OC)cc2C1CC(c1ccccc1)c1ccccc1 (stereo not shown) [Example 35]	< 0.1
COc1cc2c(cc1OC)C(CC(c1ccccc1)c1ccccc1)N(C(=O)C1CC1)CC2 (stereo not shown) [Example 5, N-cyclopropylcarbonyl 1-(2,2-diphenyleth-1-yl)-6,7-dimethoxy-1,2,3,4-tetrahydroisoquinoline]	< 0.1
COc1cc2c(cc1OC)C(CC(c1ccccc1)c1ccccc1)N(S(C)(=O)=O)CC2 (stereo not shown) [Example 12]	< 0.1
COc1cc2c(cc1OC)C(CC(c1ccccc1)c1ccccc1)N(C(=O)C1CCCCC1)CC2 (stereo not shown) [Example 44]	< 0.1
COc1cc2c(cc1OC)C(CC(c1ccccc1)c1ccccc1)N(C=O)CC2 (stereo not shown) [Example 2, N-formyl 1-(2,2-diphenyleth-1-yl)-6,7-dimethoxy-1,2,3,4-tetrahydroisoquinoline]	< 0.1
COc1cc2c(cc1OC)C(CC(C)c1ccccc1)N(C(C)=O)CC2 (stereo not shown) [Example 18]	0.1 to 1
CCCCCCC(=O)N1CCc2cc(OC)c(OC)cc2C1CCc1ccccc1 (stereo not shown) [Example 61]	0.1 to 1
COc1cc2c(cc1Br)CCN(C(=O)c1ccc(C(F)(F)F)cc1)C2CC(c1ccccc1)c1ccccc1 (stereo not shown) [Example 40]	0.1 to 1
COc1cccc(CCC2c3cc(OC)c(OC)cc3CCN2C(C)=O)c1 (stereo not shown) [Example 86]	< 0.1
COc1cc2c(cc1OC)C(CC(c1ccccc1)c1ccccc1)N(C(=O)C(F)(F)F)CC2 (stereo not shown) [Example 7, N-trifluoroacetyl 1-(2,2-diphenyleth-1-yl)-6,7-dimethoxy-1,2,3,4-tetrahydroisoquinoline]	0.1 to 1
COc1ccc(C(=O)N2CCc3cc(OC)c(OC)cc3C2CCc2ccccc2)cc1 (stereo not shown) [Example 64]	< 0.1
COc1ccc(C(CC2c3cc(OC)c(OC)cc3CCN2C(C)=O)c2ccc(OC)cc2)cc1 (stereo not shown) [Example 25]	0.1 to 1
O=C(C=Cc1ccccc1)N1CCc2cc3c(cc2C1CCc1ccc(F)cc1)OCO3 (stereo not shown) [Example 108]	0.1 to 1
COc1cc2c(cc1OC)C(CCc1ccccc1)N(C(=O)c1cc(C(F)(F)F)cc(C(F)(F)F)c1)CC2 (stereo not shown) [Example 69]	0.1 to 1

Compound	IC50 [µM]
O=C(CCl)N1CCc2cc3c(cc2C1CCc1ccc(Cl)cc1)OCO3 (stereo not shown) [Example 142]	< 0.1
COc1cc2c(cc1OC)C(CC(c1ccccc1)c1ccccc1)N(C(C)=O)CC2 (stereo not shown) [Example 1, N-acetyl 1-(2,2-diphenyleth-1-yl)-6,7-dimethoxy-1,2,3,4-tetrahydroisoquinoline]	< 0.1
CCCCCC(=O)N1CCc2cc(OC)c(OC)cc2C1CCc1ccccc1 (stereo not shown) [Example 60]	0.1 to 1
COc1cc2c(cc1OC)C(CC(c1ccccc1)c1ccccc1)N(C(=O)c1ccccc1)CC2 (stereo not shown) [Example 6, N-benzoyl 1-(2,2-diphenyleth-1-yl)-6,7-dimethoxy-1,2,3,4-tetrahydroisoquinoline]	0.1 to 1
COC(=O)N1CCc2cc3c(cc2C1CCc1ccc(F)cc1)OCC3 (stereo not shown) [Example 129]	0.1 to 1
CCCCCCC(=O)N1CCc2cc(OC)c(OC)cc2C1CC(c1ccccc1)c1ccccc1 (stereo not shown) [Example 45]	0.1 to 1
COc1cc2c(cc1Br)CCN(C(=O)C1CCC1)C2CC(c1ccccc1)c1ccccc1 (stereo not shown) [Example 32]	0.1 to 1
COc1ccc2c(c1)C(CC(c1ccccc1)c1ccccc1)N(C(C)=O)CC2 (stereo not shown) [Example 20]	< 0.1
COc1cc2c(cc1Br)CCN(C(=O)c1ccco1)C2CC(c1ccccc1)c1ccccc1 (stereo not shown) [Example 30]	0.1 to 1
CCCCCCCCCC(=O)N1CCc2cc(OC)c(OC)cc2C1CCc1ccccc1 (stereo not shown) [Example 62]	0.1 to 1
COc1ccc2c(c1)C(CC(c1ccccc1)c1ccccc1)N(C(=O)CC(C)(C)C)CC2 (stereo not shown) [Example 78]	0.1 to 1
COc1cc2c(cc1OC)C(CC(c1ccccc1)c1ccccc1)N(C(=O)c1cccs1)CC2 (stereo not shown) [Example 13]	0.1 to 1
COc1cc2c(cc1OC)C(CC(c1ccccc1)c1ccccc1)N(C(=O)c1ccco1)CC2 (stereo not shown) [Example 41]	0.1 to 1
COc1cccc2c1CCN(C(C)=O)C2CC(c1ccccc1)c1ccccc1 (stereo not shown) [Example 29]	0.1 to 1
COc1cc2c(cc1OC)C(CCc1ccccc1)N(C=O)CC2 (stereo not shown) [Example 15]	< 0.1
COc1cc2c(cc1Br)CCN(C(=O)c1ccc([N+](=O)[O-])cc1)C2CC(c1ccccc1)c1ccccc1 (stereo not shown) [Example 38]	0.1 to 1
COc1cc2c(cc1OC)C(CC(c1ccccc1)c1ccccc1)N(C(=O)c1ccc(C(F)(F)F)cc1)CC2 (stereo not shown) [Example 54]	0.1 to 1
COc1ccc2c(c1)C(CC(c1ccccc1)c1ccccc1)N(C(=O)c1ccc([N+](=O)[O-])cc1)CC2 (stereo not shown) [Example 81]	0.1 to 1

Second part, the compound after the results:

IC50 [µM]	Compound
0.1 to 1	COc1cc2c(cc1OC)C(CCc1ccccc1)N(C(N)=O)CC2 (stereo not shown) [Example 16]
0.1 to 1	COc1cc2c(cc1OC)C(CCc1ccccc1)N(C(=O)Cc1ccccc1)CC2 (stereo not shown) [Example 68]
0.1 to 1	COc1cc2c(cc1OC)C(CCc1ccccc1)N(C(=O)C(C)C)CC2 (stereo not shown) [Example 59]
0.1 to 1	O=C(c1ccccc1)N1CCc2cc3c(cc2C1CCc1ccc(Cl)cc1)OCO3 (stereo not shown) [Example 137]
0.1 to 1	COc1ccc(C(=O)N2CCc3ccc(OC)cc3C2CCc2ccc(F)cc2)cc1 (stereo not shown) [Example 111]
0.1 to 1	O=C(c1ccccc1)N1CCc2cc3c(cc2C1CCc1ccc(F)cc1)OCO3 (stereo not shown) [Example 93]
0.1 to 1	CC(=O)N1CCc2cc3c(cc2C1CCc1ccc(Cl)cc1)OCO3 (stereo not shown) [Example 138]
0.1 to 1	CC(=O)N1CCc2cc3c(cc2C1CCc1ccc(F)cc1)OCO3 (stereo not shown) [Example 94]
0.1 to 1	COc1ccc2c(c1)C(CCc1ccc(F)cc1)N(C(=O)CC(C)(C)C)CC2 (stereo not shown) [Example 121]
0.1 to 1	COc1ccc(C(=O)N2CCc3cc4c(cc3C2CCc2ccc(Cl)cc2)OCO4)cc1 (stereo not shown) [Example 141]
0.1 to 1	CC(C)COC(=O)N1CCc2cc3c(cc2C1CCc1ccc(F)cc1)OCO3 (stereo not shown) [Example 106]
< 0.1	CCCC(=O)N1CCc2ccc(OC)cc2C1CCc1ccc(F)cc1 (stereo not shown) [Example 115]
< 0.1	COCC(=O)N1CCc2cc3c(cc2C1CCc1ccc(F)cc1)OCO3 (stereo not shown) [Example 96]
0.1 to 1	CC(=O)OCC(=O)N1CCc2cc3c(cc2C1CCc1ccc(F)cc1)OCC3 (stereo not shown) [Example 133]
< 0.1	COc1ccc2c(c1)C(CCc1ccc(F)cc1)N(C(=O)C1CCCC1)CC2 (stereo not shown) [Example 116]
< 0.1	O=C(C1CC1)N1CCc2cc3c(cc2C1CCc1ccc(Cl)cc1)OCO3 (stereo not shown) [Example 139]
< 0.1	CCCC(=O)N1CCc2cc3c(cc2C1CCc1ccc(F)cc1)OCO3 (stereo not shown) [Example 101]
< 0.1	CCC(=O)N1CCc2ccc(OC)cc2C1CCc1ccc(F)cc1 (stereo not shown) [Example 119]
< 0.1	COc1ccc2c(c1)C(CCc1ccc(F)cc1)N(C(=O)C1CC1)CC2 (stereo not shown) [Example 109]
< 0.1	COc1ccc2c(c1)C(CCc1ccc(F)cc1)N(C(C)=O)CC2 (stereo not shown) [Example 90]
< 0.1	COc1cc2c(cc1OC)C(CCc1ccccc1)N(C(=O)c1ccco1)CC2 (stereo not shown) [Example 55]
< 0.1	COc1ccc2c(c1)C(CCc1ccc(F)cc1)N(C(=O)CCl)CC2 (stereo not shown) [Example 112]
< 0.1	CCC(=O)N1CCc2cc3c(cc2C1CCc1ccc(F)cc1)OCO3 (stereo not shown) [Example 105]
